Here are results for twelve compounds from PubChem BioAssay (NCI).

Broadly, the TGI is the concentration at which net growth stops. High values mean lower sensitivity of the cells, low ones greater sensitivity of the cells.

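Values below derive from 48-hour exposures of cells grown in 96-well plates, with endpoints linearly interpolated between the two concentrations bracketing the appropriate inhibition level. TGI is the concentration that stops growth completely.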 Where a SMILES comes first, the peptide text is derived from it. The star is where a group is joined. Boc = CC(C)(C)OC(=O)*

Holding throughout (experiment): DTP human tumour cell line panel, 48 h
The test system of experiment [1] is DU-145 prostate.
For experiment [2], the system named is MCF7 breast.
Experiment [3] deals with KM12 colon.
Experiment [4] relates to A498 renal.
Experiment [5] relates to OVCAR-3 ovarian.
Experiment [6] has as its system UACC-257 melanoma.
Experiment [7] relates to PC-3 prostate.
For experiment [8], the system named is NCI-H522 lung.
In experiment [9] the test system is UACC-62 melanoma.
Experiment [10] concerns SK-MEL-2 melanoma.

`CC(C)(C)OC(=O)N1C(c2cccnc2)=CC[C@H]2C3CC=C(c4cccnc4)[C@@]3(C)CC[C@@H]21` (stereo partly specified): the TGI in experiment [1] was found to be 19.2 µM; in experiment [2], 11.1 µM; in experiment [3] it was 28.8 µM; in experiment [4] it was 18.5 µM; in experiment [5], 14.2 µM; in experiment [6], 10.6 µM. The TGI turned out to be 19.3 µM in [7], 11.9 µM in experiment [8], 8.31 µM in [9] and 8.39 µM in experiment [10].
Take `COC(=O)C(Cc1c[nH]c2ccccc12)NC(=O)C(Cc1c[nH]c2ccccc12)NC(=O)C(Cc1c[nH]c2ccccc12)NC(=O)C(Cc1c[nH]c2ccccc12)NC(=O)C(Cc1c[nH]c2ccccc12)NC(=O)C(Cc1c[nH]c2ccccc12)NC(=O)C(Cc1c[nH]c2ccccc12)NC(=O)C(Cc1c[nH]c2ccccc12)NC(=O)OC(C)(C)C` (stereo unspecified) (Boc-WWWWWWWW-OMe; configuration not given here): the TGI in experiment [1] was greater than 100 µM; in [2], greater than 100 µM; in experiment [4], 55.6 µM; in experiment [5], greater than 100 µM; in experiment [6] it was greater than 100 µM; in experiment [7], greater than 100 µM. Also, the TGI was 60.3 µM in [8], greater than 100 µM in experiment [9] and greater than 100 µM in experiment [10].
`Cc1cn(CC2=NCC(C)N2)c(=O)[nH]c1=O` (stereo unspecified): the TGI in experiment [1], in experiment [2], in [4], in experiment [6], in [7] and in experiment [8] was greater than 100 µM each time. The TGI in experiment [9] and in [10] was greater than 100 µM each time.
On to `CC1=C(C(=O)Nc2ccccc2)C2(CCCCC2)C(C#N)=C(SCC(=O)Nc2ccc(Br)cc2)N1`, for which the TGI in [1] was greater than 100 µM; in experiment [2], greater than 47.9 µM; in experiment [3] it was greater than 26 µM; in experiment [4], 19.6 µM; in [5], 15 µM; in experiment [6], greater than 43.4 µM. For the same compound, the TGI in experiment [7] is 7.96 µM; in experiment [8], 7.25 µM; in experiment [9], greater than 87.3 µM; in [10] it was 6.6 µM.
For the compound `Cc1ccc(NC(=O)c2cc(S(=O)(=O)Nc3nc4ncccc4[nH]3)c(SSc3cc(Cl)c(C(=O)Nc4ccc(C)cc4)cc3S(=O)(=O)Nc3nc4ncccc4[nH]3)cc2Cl)cc1`, the TGI in experiment [1], in [2], in experiment [3], in experiment [4], in experiment [5] and in [6] was greater than 100 µM each time. For the same compound, the TGI in experiment [7], in [8], in experiment [9] and in experiment [10] was greater than 100 µM in each case.
With `COCN1C(=O)[C@@H]2CCCN2C(=O)c2cc(N)ccc21`, the TGI in experiment [1], in experiment [2], in experiment [3], in [4], in [6] and in experiment [7] was greater than 100 µM each time. Moreover, the TGI in experiment [8], in experiment [9] and in experiment [10] was greater than 100 µM throughout.
In the case of `CC(=O)OCc1ccc2oc(=O)c(C(=O)Oc3ccccc3)cc2c1`, the TGI in [1], in experiment [2], in experiment [3], in experiment [4], in [5] and in experiment [6] was greater than 100 µM throughout. Moreover, the TGI in experiment [7] was 34.5 µM; in experiment [8] it was greater than 100 µM; in experiment [9], 38.6 µM; in experiment [10], greater than 100 µM.
With `COC(=O)c1ccccc1C1CN=NC12Cc1cc(C)ccc1C2=O` (stereo unspecified), the TGI is greater than 100 µM in experiment [1]; 75.4 µM in experiment [2]; greater than 100 µM in experiment [3]; greater than 100 µM in [4]; greater than 100 µM in experiment [5]; greater than 100 µM in experiment [6]. Besides, the TGI in [7], in experiment [8], in experiment [9] and in experiment [10] was greater than 100 µM throughout.
Regarding `O=C1C(c2c(O)[nH]c3ccc(Br)cc23)=Nc2ccccc21`, the TGI in experiment [1] turned out to be 27.2 µM; in experiment [2] it was 3.72 µM; in experiment [3], 50.5 µM; in [4], 14.1 µM; in experiment [5] it was 45.8 µM; in experiment [6], 57.3 µM. The TGI in experiment [7] was determined as 17.8 µM; in experiment [8] it was 39.7 µM; in [9] it was 28 µM; in experiment [10], 28.3 µM.
Turning to `COC(=O)C(CCSC)NC(=O)Cc1ccc(C(=O)c2ccccc2)cc1` (stereo unspecified), the TGI in [1], in [2], in experiment [3], in experiment [4], in experiment [5] and in [6] was greater than 100 µM throughout. Further, the TGI in experiment [7], in experiment [8], in experiment [9] and in experiment [10] was greater than 100 µM throughout.
For the compound `CC(=O)Nc1c(C)cc2c(nc3n2CCC3O)c1[N+](=O)[O-]` (stereo unspecified), the TGI in experiment [1], in experiment [2], in [3], in experiment [4], in experiment [5] and in experiment [6] was greater than 100 µM each time. Also, the TGI in experiment [7], in experiment [8], in experiment [9] and in experiment [10] was greater than 100 µM throughout.
Regarding `O=C1C(Cl)=C(Nc2ccc(S(=O)(=O)Nc3ccccn3)cc2)C(=O)c2ccccc21`, the TGI in [1] is 25.9 µM; in experiment [2], 12.9 µM; in experiment [3], 32.4 µM; in experiment [4], 45.1 µM; in experiment [5], 15.6 µM; in experiment [6] it was 10.3 µM. Besides, the TGI is 27 µM in experiment [7], 13.7 µM in experiment [8], 11.8 µM in experiment [9] and 15.3 µM in [10].
